From ChEMBL document CHEMBL5725551, “Inhibitors of the renal outer medullary potassium channel” (2017)

Molecular target: T1, ATP-sensitive inward rectifier potassium channel 1 (Homo sapiens, UniProt P48048)
T1 sequence (P48048 whole entry): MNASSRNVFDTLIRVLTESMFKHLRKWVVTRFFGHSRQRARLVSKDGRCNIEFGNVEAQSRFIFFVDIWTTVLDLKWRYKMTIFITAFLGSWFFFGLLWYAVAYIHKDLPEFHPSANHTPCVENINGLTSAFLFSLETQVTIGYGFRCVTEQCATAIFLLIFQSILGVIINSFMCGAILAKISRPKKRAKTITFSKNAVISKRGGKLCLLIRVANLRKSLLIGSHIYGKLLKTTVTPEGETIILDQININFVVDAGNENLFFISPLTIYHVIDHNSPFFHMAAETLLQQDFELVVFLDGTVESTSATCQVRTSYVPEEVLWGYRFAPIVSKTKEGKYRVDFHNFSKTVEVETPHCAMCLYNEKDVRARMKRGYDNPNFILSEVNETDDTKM
Assay: Thallium Flux Assay: A Thallium Flux Assay was performed on each of the final product compounds of the Examples. This assay has been described previously; see, e.g., PCT Published Application WO 2013/062900.

Compound | IC50 [µM]
CC1=C(N2C(=O)[C@]3(CC[C@H](N(C)Cc4ccc(-n5cnnn5)nn4)CC3)C[C@@H]2C)COC1=O | 0.2
C[C@H]1C[C@]2(CC[C@@H](NCc3cnc(-n4cnnn4)s3)CC2)C(=O)N1C1=CC(=O)OC1 | 0.024
CC1C[C@]2(CC[C@@H](NCc3cnc(-n4cnnn4)cn3)CC2)C(=O)N1C1=CC(=O)OC1 (stereo not given in full) | 0.046
CC1=C(N2CC[C@]3(CC[C@@H](N(Cc4ccc(-n5cnnn5)nn4)Cc4ncco4)CC3)C2=O)COC1=O | 0.21
C[C@@H]1C[C@]2(CC[C@@H](NCc3cnc(-n4cnnn4)s3)CC2)C(=O)N1C1=CC(=O)OC1 | 0.19
C[C@H]1C[C@]2(CC[C@H](NCc3ccc(-n4cnnn4)nn3)CC2)C(=O)N1C1=CC(=O)OC1 | 0.0084
CC1=C(N2CCC3(CCC(NCc4ccc5c(c4C)Cn4nnnc4-5)CC3)C2=O)COC1=O (stereo not given) | 0.019
C[C@@H]1C[C@]2(CC[C@@H](NCc3ccc(-n4cnnn4)nn3)CC2)C(=O)N1C1=CC(=O)OC1 | 0.11
CC1=C(N2C(=O)[C@]3(CC[C@H](NCc4ccc(-n5cnnn5)nn4)CC3)C[C@H]2C)COC1=O | 0.023
CC1=C(N2CC[C@]3(CC[C@@H](N(C)Cc4ccc(-n5ncnn5)nc4)CC3)C2=O)COC1=O | 0.64
CC1C[C@]2(CC[C@@H](NCc3ccc(-n4cnnn4)nn3)CC2)C(=O)N1C1=CC(=O)OC1 (stereo not given in full) | 0.028
CC1=C(N2C(=O)[C@]3(CC[C@H](NCc4ccc(-n5cnnn5)nn4)CC3)C[C@@H]2C)COC1=O | 0.04
C[C@@H]1C[C@]2(CC[C@@H](N(C)Cc3ccc(-n4cnnn4)nn3)CC2)C(=O)N1C1=CC(=O)OC1 | 0.27
C[C@H]1C[C@]2(CC[C@@H](NCc3ccc(-n4cnnn4)nn3)CC2)C(=O)N1C1=CC(=O)OC1 | 0.03
CC1=C(N2C(=O)[C@]3(CC[C@H](N(C)Cc4ccc(-n5cnnn5)nn4)CC3)C[C@H]2C)COC1=O | 0.2

Next, values leading:

IC50 [µM] | Compound
0.0084 | CC1=C(N2CC[C@]3(CC[C@@H](NCc4cc(C)c(-n5cnnn5)nn4)CC3)C2=O)COC1=O
0.03 | CC1=C(N2CC[C@]3(CC[C@@H](N(C)Cc4cnc(-n5cnnn5)s4)CC3)C2=O)COC1=O
0.31 | CC1=C(N2C(=O)[C@]3(CC[C@@H](N(C)Cc4cnc(-n5cnnn5)cn4)CC3)C[C@@H]2C)COC1=O
0.42 | CC1=C(N2C(=O)[C@]3(CC[C@@H](NCc4cnc(-n5cnnn5)cn4)CC3)C[C@@H]2C)COC1=O
0.092 | CC1=C(N2CC[C@]3(CC[C@@H](NCc4cnc(-n5cnnn5)s4)CC3)C2=O)COC1=O
0.15 | CC1=C(N2CC[C@]3(CC[C@@H](N(CCO)Cc4ccc(-n5cnnn5)nn4)CC3)C2=O)COC1=O
0.32 | CC1=C(N2CC[C@]3(CC[C@@H](N[C@@H](C)c4ccc(-n5cnnn5)nn4)CC3)C2=O)COC1=O
0.065 | CC1=C(N2C(=O)[C@]3(CC[C@H](NCc4cnc(-n5cnnn5)cn4)CC3)C[C@H]2C)COC1=O
0.2 | CC1=C(N2C(=O)[C@]3(CC[C@H](N(C)Cc4cnc(-n5cnnn5)cn4)CC3)C[C@H]2C)COC1=O
0.17 | CC1=C(N2CC[C@]3(CC[C@@H](NC(C)c4cnc(-n5cnnn5)cn4)CC3)C2=O)COC1=O (stereo not given in full)
